SMILES strings stand for the structures.

The target in the first experiment is human sphingosine-1-phosphate receptor 1 (S1P1) (Homo sapiens, UniProt P21453). Nature of the experiment: Inhibition of cAMP production (HTRF cAMP HiRange), S1P1 CHO-K1 cells. It is filed as cell-based. Conditions: inhibition of cAMP production, S1P1; read-out: hS1P1 CAMP pEC50 (converted). Here is the method: Stable clonal Chinese hamster ovary K1 (CHO-K1) cells co-expressing EA-β-arrestin2 and the human sphingosine-1-phosphate receptor 1 (NM_001400, S1P1) with a C-terminal Prolink™ tag were purchased from DiscoverX corporation (Cat #: 93-0207C2).
Sequence of human sphingosine-1-phosphate receptor 1 (S1P1) (P21453 whole entry): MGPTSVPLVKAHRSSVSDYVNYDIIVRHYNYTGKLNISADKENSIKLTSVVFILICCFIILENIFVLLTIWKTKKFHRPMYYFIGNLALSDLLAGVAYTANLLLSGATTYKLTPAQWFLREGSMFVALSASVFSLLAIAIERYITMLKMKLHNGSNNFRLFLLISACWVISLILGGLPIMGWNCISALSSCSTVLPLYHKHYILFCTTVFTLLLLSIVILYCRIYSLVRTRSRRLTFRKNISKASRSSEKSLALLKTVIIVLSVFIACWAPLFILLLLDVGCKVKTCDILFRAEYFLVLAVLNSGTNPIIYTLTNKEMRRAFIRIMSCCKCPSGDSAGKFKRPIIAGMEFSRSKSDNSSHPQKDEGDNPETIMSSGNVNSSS
Cell lines were cultured in AssayComplete™ Media 6 (DiscoverX Corporation, Cat #: 920018GF2) at 37° C. and 5% CO2 in a humidified CO2 and temperature-controlled incubator. To begin assay plating, cells were washed with Dulbecco's phosphate buffered saline (CellGro, Cat #: 21-031-CV) and lifted from the culturing flask by incubation (37° C., 5 min) with CellStripper (Cellgro, Cat #: 25-056-CI). […] Plated cells were incubated overnight at 37° C. and 5% CO2 in a humidified CO2 and temperature-controlled incubator.
Agonist-promoted G-protein responses were determined by measuring changes in intracellular cAMP using the HTRF® cAMP HiRange kit (CisBio, Cat #: 62AM6PEJ) based on time-resolved fluorescence resonance energy transfer (TR-FRET) technology. […] Following a 30-minute incubation at 37° C. and 5% CO2 in a humidified CO2 and temperature-controlled incubator, the components of the cAMP HiRange kit were added as per the manufacturer's instructions. After an hour incubation at room temperature, plates were analyzed by a BMG PheraStar microplate reader.
These values are normalized to fingolimod, a known agonist of the sphingosine-1-phosphate 1 receptor.
In general terms: Changes in cAMP serve as a functional read-out for many G protein-coupled receptors.
`COCCn1cc(-c2ccccc2C)cc1-c1ccc2c(c1)nnn2C(C)C` [Compound 534, 5-[1-(2-methoxyethyl)-4-(2-methylphenyl)-1H-pyrrol-2-yl]-1-(propan-2-yl)-1H-1,2,3-benzotriazole]: the EC50 was more than 316 nM.
On to `COc1cccnc1-c1nc(-c2ccc3c(c2)nnn3C(C)C)no1` [Compound 612, 3-(1-isopropyl-1H-benzo[d][1,2,3]triazol-5-yl)-5-(3-methoxy-pyridin-2-yl)-1,2,4-oxadiazole], for which the EC50 was less than 316 nM.
Turning to `COc1cccc2oc(-c3ccc4c(c3)nnn4C(C)C)nc12` [Compound 424, 2-(1-isopropyl-1H-benzo[d][1,2,3]triazol-5-yl)-4-methoxy-benzo[d]oxazole], the EC50 was less than 316 nM.

Still in this experiment, the particulars now being: inhibition of cAMP production; potency; read-out: hS1P1 CAMP pEC50 (converted).
Turning to `CC(C)n1nnc2cc(-c3nc(-c4ccc(OCc5ccccc5)c(C(F)(F)F)c4)no3)ccc21` [Compound 296, 5-{3-[4-(benzyloxy)-3-(trifluoromethyl)phenyl]-1,2,4-oxadiazol-5-yl}-1-(propan-2-yl)-1H-1,2,3-benzotriazole], the EC50 is more than 316 nM.
Regarding `CC1(C)CC(=O)c2cc(-c3nc(-c4cccnc4)no3)ccc2O1` [Compound 274, 2,2-dimethyl-6-[3-(pyridin-3-yl)-1,2,4-oxadiazol-5-yl]-3,4-dihydro-2H-1-benzopyran-4-one], the EC50 was more than 316 nM.
Turning to `CCC1(CC)CC(=O)c2cc(-c3nc(-c4cncc(O)c4)no3)ccc2O1` [Compound 310, 2,2-diethyl-6-[3-(5-hydroxy-3-pyridyl)-1,2,4-oxadiazol-5-yl]chroman-4-one], the EC50 was less than 316 nM.
Regarding `COc1ccccc1-c1nnc(-c2ccc3[nH]c(=O)oc3c2)o1` [Compound 349, 6-[5-(2-methoxyphenyl)-1,3,4-oxadiazol-2-yl]-2,3-dihydro-1,3-benzoxazol-2-one], the EC50 was less than 316 nM.
With `Brc1ccccc1-c1nc(-c2ccc3c(c2)nnn3Cc2cccnc2)no1` [Compound 283, 5-(2-bromophenyl)-3-(1-(pyridin-3-ylmethyl)-1H-benzo[d][1,2,3]triazol-5-yl)-1,2,4-oxadiazole], the EC50 is more than 316 nM.
Regarding `CCC1(CC)CC(=O)c2cc(-c3nc(-c4ccnc(OC)c4)no3)ccc2O1` [Compound 38, 2,2-diethyl-6-(3-(2-methoxypyridin-4-yl)-1,2,4-oxadiazol-5-yl)chroman-4-one], the EC50 was more than 316 nM.
`CC(C)n1ccc2cc(-c3nc(-c4ccccc4OC(F)(F)F)no3)ccc21` [Compound 321, 5-(1-isopropyl-1H-indol-5-yl)-3-(2-(trifluoro-methoxy)phenyl)-1,2,4-oxadiazole]: the EC50 is more than 316 nM.
`COc1cc(-c2nc(-c3ccc4c(c3)nnn4C(C)C)no2)ccn1` [Compound 116, 3-(1-isopropyl-1H-benzo[d][1,2,3]triazol-5-yl)-5-(2-methoxypyridin-4-yl)-1,2,4-oxadiazole]: the EC50 is more than 316 nM.
As to `Cc1ccncc1-c1nc(-c2ccc3c(c2)nnn3C(C)C)no1` [Compound 100, 3-(1-isopropyl-1H-benzo[d][1,2,3]triazol-5-yl)-5-(4-methyl-pyridin-3-yl)-1,2,4-oxadiazole], the EC50 is more than 316 nM.
Take `Cn1nnc2cc(-c3noc(-c4ccccc4Br)n3)ccc21` [Compound 73, 5-(2-bromophenyl)-3-(1-methyl-1H-benzo[d][1,2,3]triazol-5-yl)-1,2,4-oxadiazole]: the EC50 was more than 316 nM.
On the same count and under the same terms, under `Cc1ccccc1-c1noc(-c2ccc3c(c2)nnn3C2CCCC2)n1` [Compound 175, 1-cyclopentyl-5-[3-(2-methylphenyl)-1,2,4-oxadiazol-5-yl]-1H-1,2,3-benzotriazole] stands less than 316 nM; under `COc1ccc(-c2cnc(-c3ccc4c(c3)nnn4C(C)C)s2)cc1` [Compound 109, 2-(1-isopropyl-1H-benzo[d][1,2,3]triazol-5-yl)-5-(4-methoxy-phenyl)thiazole], more than 316 nM; under `CCC1(CC)CC(=O)c2cc(-c3nc(-c4ccc(C(N)=O)cc4)no3)ccc2O1` [Compound 179, 4-(5-(2,2-diethyl-4-oxochroman-6-yl)-1,2,4-oxadiazol-3-yl)benzamide], less than 316 nM.

The values are drawn from patent publication US20230114241A1, “METHODS OF TREATING EPILEPSY USING THE SAME” (Trevena, Inc., priority 2019, published 2023).
